Where two headings read alike, the source gives them in different places.
Experiments:
[1] = system: pAKT and pERK; assay: Immunohistochemical staining for pAKT and pERK in bone marrow of WM patients on ibrutinib; format: in vivo, human
[2] = system: BCWM.1 and MWCL-1 cells; assay: Annexin V staining (apoptosis), Example 5; format: cell-based; conditions: 18 hours
[3] = system: phospho-AKT, phospho-ERK and phospho-BTK; assay: SDF-1a triggered AKT, ERK and BTK signaling (phosphoflow, immunoblotting) in transduced BCWM.1 cells; format: cell-based
[4] = system: CXCR4; assay: Cell surface CXCR4 expression by flow cytometry in transfected WM cells; format: cell-based
Method: (§1) Five days after transduction, GFP positive cells were sorted and used for functional studies. Surface expression of CXCR4 was determined by flow cytometric analysis using a PE-conjugated anti-CXCR4 monoclonal antibody (BD Biosciences, San Jose Calif.). Transduced cell lines were stimulated with or without SDF-1a (10-100 nM), and cell surface expression of CXCR4 determined on CXCR4^WT and S338X transduced cells. CXCR4 expression levels were calculated as: [(receptor geometric mean fluorescence intensity [MFI] of treated cells-MFI of isotype IgG control)/(receptor geometric MFI of unstimulated cells-MFI of isotype IgG control)]×100.

[5] = system: CXCR4^S338X MWCL-1 cells; assay: PARP and caspase 3 cleavage by immunoblotting (apoptosis), MWCL-1; format: cell-based; conditions: for level of SDF-1a mediated rescue from PARP and caspase 3 cleavage: agents at EC50 dose ranges, 6 hours, SDF-1a 20 nM
[6] = system: CXCR4^S338X BCWM.1 cells; assay: PARP and caspase 3 cleavage by immunoblotting (apoptosis), BCWM.1; format: cell-based; conditions: for level of SDF-1a mediated rescue from PARP and caspase 3 cleavage: agents at EC50 dose ranges, 6 hours, SDF-1a 20 nM
[7] = system: BCWM.1 WM cells; assay: Annexin V staining (apoptosis) of CXCR4 frameshift/nonsense mutant expressing BCWM.1 cells, Example 6; format: cell-based; conditions: CXCR4^T311fs and CXCR4^S344fs cells; for SDF-1a rescue of ibrutinib or idelalisib treated cells: MK-2206 0.5 uM, AS-703026 0.25 uM, 18 hours
From the text: CXCR4^WT, CXCR4^FS, CXCR4^S338X cDNAs were subcloned into plenti-IRES-GFP vector, and transduced using a lentiviral based strategy into BCWM.1 WM cells as before (Cao et al, 2014; Yang et al, 2013). Frameshift mutations proximal and distal to CXCR4^S338X that were identified in WM patients by WGS were studied (FIG. 11). […] The nonsense mutation CXCR4^S338X resulted from C>G change at 136872485 (Hunter et al, 2013). Five days after transduction, GFP positive cells were sorted and used for functional studies. Surface CXCR4 expression was determined at baseline, and following stimulation for 30 minutes with SDF-1a (10-100 nM) as before (Cao et al, 2014). Phosphoflow experiments were performed using conjugated antibodies to phospho-ERK1/2 (T^202/Y^204) and phospho-AKT(S^473) (BD Phosflow) as previously described (Cao et al, 2014). […] Survival studies related to AKT and ERK were performed in the presence or absence AKT (MK-2206, 0.5 uM) or MEK (AS-703026, 0.25 uM) specific inhibitors (Selleck Chemicals, Houston Tex.) as previously reported (Cao et al, 2014).

[8] = system: BCWM.1 WM cells; conditions: CXCR4 S338X transduced cells; 30 nM AMD3100; p<0.005
From the text: Five days after transduction, GFP positive cells were sorted and used for functional studies.

[9] = system: WHIM patients; conditions: WHIM patients treated daily for 6 months; cited from earlier work
[10] = system: BCWM.1 and MWCL-1 cells; conditions: CXCR4^S338X expressing cells; co-treatment ibrutinib and AMD3100 30 uM
Method: as §1

[11] = CXCR4^S338X BCWM.1 and MWCL-1 cells
[12] = SDF-1a cultured CXCR4^S338X BCWM.1 cells, AS-703026 0.25 uM, AZD-6244 0.5 uM, U0126 5.0 uM
[13] = CXCR4^WT and CXCR4^S338X expressing BCWM.1 cells, pre-treatment 2 hours, AMD3100 30 uM or pertussis toxin 500 ng, SDF-1a 20 nM

C=CC(=O)N1CCC[C@@H](n2nc(-c3ccc(Oc4ccccc4)cc3)c3c(N)ncnc32)C1 [ibrutinib, 1-[(3R)-3-[4-amino-3-(4-phenoxyphenyl)pyrazolo[3,4-d]pyrimidin-1-yl]piperidin-1-yl]prop-2-en-1-one]
pAKT staining in bone marrow on continuous ibrutinib therapy ([1]; CXCR4^WHIM patients, 6 months): remained robust without any changes from baseline
pAKT staining in bone marrow on continuous ibrutinib therapy ([1]; CXCR4^WT patients): marginal pAKT staining
pERK staining in bone marrow despite ibrutinib therapy ([1]; all patients, regardless of CXCR4 mutation status): low levels of pERK staining
Annexin V staining: SDF-1a effect on ibrutinib mediated apoptotic changes ([2]; ibrutinib plus SDF-1a): rescue of ibrutinib mediated apoptotic changes by SDF-1a
BTK signaling [3]: blocked BTK signaling
SDF-1a triggered AKT and ERK activation [3]: attenuated
SDF-1a triggered AKT and ERK signaling [3]: did not show attenuation
cell surface CXCR4 expression following ibrutinib treatment ([4]; CXCR4^WT or CXCR4^S338X expressing WM cells, 0.5, 1, 2, and 6 hours): little or no significant changes
SDF-1a related changes in cell surface CXCR4 expression ([4]; vector only, CXCR4^WT and CXCR4^S338X transfected WM cells, addition of ibrutinib): did not affect

CC(C)C[C@H](NC(=O)[C@H](Cc1ccccc1)NC(=O)c1cnccn1)B(O)O [bortezomib]
level of SDF-1a mediated rescue from PARP and caspase 3 cleavage [5]: lesser levels of rescue
level of SDF-1a mediated rescue from PARP and caspase 3 cleavage [6]: moderate

CC[C@H](Nc1ncnc2[nH]cnc12)c1nc2cccc(F)c2c(=O)n1-c1ccccc1 [idelalisib]
level of SDF-1a mediated rescue from PARP and caspase 3 cleavage [5]: moderate level of rescue
Annexin V studies: SDF-1a rescue [2, 11]: pronounced rescue by SDF-1a
level of SDF-1a mediated rescue from PARP and caspase 3 cleavage [6]: strong

Cn1cnc2c(F)c(Nc3ccc(Br)cc3Cl)c(C(=O)NOCCO)cc21 [AZD-6244]
inhibitory activity by western blot analysis for pERK (T202/Y204) [3, 12]: confirmed

N#CC(=C(/N)Sc1ccccc1N)/C(C#N)=C(\N)Sc1ccccc1N [U0126]
inhibitory activity by western blot analysis for pERK (T202/Y204) [3]: confirmed

pertussis toxin
SDF-1a triggered AKT and ERK activation [3, 13]: blocked both AKT and ERK activation

NC1(c2ccc(-c3nc4ccn5c(=O)[nH]nc5c4cc3-c3ccccc3)cc2)CCC1 [MK-2206]
SDF-1a rescue of ibrutinib or idelalisib treated cells [7]: attenuated SDF-1a rescue
inhibitory activity by western blot analysis for pAKT (S473) ([3]; SDF-1a cultured CXCR4^S338X BCWM.1 cells, 0.5 uM): confirmed

AZD-5363
inhibitory effect on AKT (phospho-activity of downstream targets GKS3β and pS6) ([3]; CXCR4^S338X BCWM.1 cells, 0.5 uM): confirmed by inhibition of the phospho-activity

Cn1c(CCCC(=O)O)nc2cc(N(CCCl)CCCl)ccc21 [bendamustine]
level of SDF-1a mediated rescue from PARP and caspase 3 cleavage [5]: little to no SDF-1a rescue
level of SDF-1a mediated rescue from PARP and caspase 3 cleavage [6]: moderate

c1cc(CN2CCCNCCNCCCNCC2)ccc1CN1CCCNCCNCCCNCC1 [AMD3100]
block of CXCL12 rescue from ibrutinib growth effect [8]: rescue could be blocked
reversal of SDF-1a rescue by co-treatment with AMD3100 ([5]; idelalisib, fludarabine and bortezomib treated cells, AMD3100 30 uM): reversal of SDF1-a rescue
effect of concurrent CXCR4 antagonist on ibrutinib apoptosis in SDF-1a exposed cells ([7]; CXCR4^S338X, plerixafor 30 uM): restored the pro-apoptotic effects of ibrutinib
myelokathexis related leukopenia [9]: reversed myelokathexis related leukopenia
Annexin V staining: effect of adding AMD3100 to cells treated with ibrutinib and SDF-1a [2]: restoration of apoptotic changes
Annexin V studies: effect of AMD3100 on SDF-1a rescue of idelalisib treated cells [2, 11]: reversal of rescue
reversal of SDF-1a mediated rescue by co-treatment with AMD3100 ([6]; all agents (bendamustine, fludarabine, bortezomib, idelalisib), AMD3100 30 uM): reversal of rescue
SDF-1a triggered AKT and ERK activation [3, 13]: blocked both AKT and ERK activation
reversal of SDF-1a rescue from ibrutinib induced apoptosis [10]: could be reversed

O=C(NC[C@H](O)CO)c1ccncc1Nc1ccc(I)cc1F [AS-703026]
SDF-1a rescue of ibrutinib or idelalisib treated cells [7]: attenuated SDF-1a rescue
inhibitory activity by western blot analysis for pERK (T202/Y204) [3, 12]: confirmed

Nc1nc(F)nc2c1ncn2[C@@H]1O[C@H](CO)[C@@H](O)[C@@H]1O [fludarabine]
level of SDF-1a mediated rescue from PARP and caspase 3 cleavage [5]: lesser levels of rescue
level of SDF-1a mediated rescue from PARP and caspase 3 cleavage [6]: moderate

— patent US10526660B2, “Methods for evaluating and treating Waldenstrom's macroglobulinemia” (Dana-Farber Cancer Institute, Inc., priority 2013, dated 2020)
